From DBAASP
Values after ≈ are worked out from the molar mass of the structure shown.

How the values were obtained:
Assay in all cases: ≥ marks a high value that may be exact or a test limit, other limits are often not marked, values filed in µg/mL are converted to µM
[1] = system: Salmonella typhimurium
[2] = system: Micrococcus luteus
[3] = system: Bacillus subtilis
[4] = system: Shigella dysenteriae
[5] = system: Staphylococcus epidermidis
[6] = system: Escherichia coli
[7] = system: Staphylococcus aureus
[8] = system: Pseudomonas aeruginosa
[9] = system: Proteus mirabilis
[10] = system: Klebsiella pneumoniae
[11] = system: Escherichia coli ATCC 25922
[12] = system: Bacillus subtilis ATCC 6633
[13] = system: Shigella dysenteriae ATCC 9752
[14] = system: Staphylococcus epidermidis ATCC 12228
[15] = system: Klebsiella pneumoniae ATCC 10031
[16] = system: Salmonella enterica subsp. enterica serovar Typhimurium ATCC 14028
[17] = system: Staphylococcus aureus ATCC 6538P
[18] = system: Pseudomonas aeruginosa ATCC 27853
[19] = system: Escherichia coli SBS 363
[20] = system: Staphylococcus aureus ATCC 29213
[21] = system: Escherichia coli JW0013

Row | MIC [1] [µM] | MIC [2] [µM] | MIC [3] [µM] | MIC [4] [µM] | MIC [5] [µM] | MIC [6] [µM] | MIC [7] [µM] | MIC [8] [µM] | MIC [9] [µM] | MIC [10] [µM] | SMILES | further results
1 | ≥ 167 | 10.5 (≈ 12.5 µg/mL) | 20.9 (≈ 25 µg/mL) | ≥ 83.7 | ≥ 83.7 | 83.7 (≈ 100 µg/mL) | 20.9 (≈ 25 µg/mL) | 167 (≈ 200 µg/mL) | ≥ 167 | 167 (≈ 200 µg/mL) | CC(C)C[C@H](NC(=O)[C@H](C)NC(=O)CNC(=O)[C@H](CC(C)C)NC(=O)[C@@H](N)Cc1ccccc1)C(=O)N[C@@H](Cc1ccccc1)C(=O)N[C@@H](CCCCN)C(=O)N[C@@H](CC(C)C)C(=O)N[C@@H](C)C(=O)N[C@@H](CO)C(=O)N[C@@H](CCCCN)C(=O)O [FLGALFKLASK] | –
2 | ≥ 159 | 9.95 (≈ 12.5 µg/mL) | 9.95 (≈ 12.5 µg/mL) | ≥ 79.6 | ≥ 39.8 | 79.6 (≈ 100 µg/mL) | 9.95 (≈ 12.5 µg/mL) | > 159 | ≥ 159 | 79.6 (≈ 100 µg/mL) | CC(C)C[C@H](NC(=O)[C@H](Cc1ccccc1)NC(=O)CNC(=O)[C@H](CC(C)C)NC(=O)[C@@H](N)Cc1ccccc1)C(=O)N[C@@H](Cc1ccccc1)C(=O)N[C@@H](CCCCN)C(=O)N[C@H](C(=O)N[C@@H](C)C(=O)N[C@@H](CO)C(=O)N[C@@H](CCCCN)C(=O)O)C(C)C [FLGFLFKVASK] | –
3 | ≥ 38.6 | 19.3 (≈ 25 µg/mL) | 4.86 (≈ 6.3 µg/mL) | 9.65 (≈ 12.5 µg/mL) | 9.65 (≈ 12.5 µg/mL) | 19.3 (≈ 25 µg/mL) | 2.39 (≈ 3.1 µg/mL) | 77.2 (≈ 100 µg/mL) | ≥ 154 | 9.65 (≈ 12.5 µg/mL) | CC(C)C[C@H](NC(=O)[C@H](Cc1c[nH]c2ccccc12)NC(=O)CNC(=O)[C@H](CC(C)C)NC(=O)[C@@H](N)Cc1ccccc1)C(=O)N[C@@H](Cc1ccccc1)C(=O)N[C@@H](CCCCN)C(=O)N[C@H](C(=O)N[C@@H](C)C(=O)N[C@@H](CO)C(=O)N[C@@H](CCCCN)C(=O)O)C(C)C [FLGWLFKVASK] | –
4 | ≥ 141 | ≥ 141 | ≥ 141 | ≥ 141 | ≥ 141 | > 141 | > 141 | > 141 | ≥ 141 | > 141 | CC(C)C[C@H](NC(=O)[C@@H](NC(=O)[C@H](CCCCN)NC(=O)[C@H](CO)NC(=O)[C@H](C)NC(=O)[C@@H](NC(=O)[C@H](CCCCN)NC(=O)[C@H](Cc1ccccc1)NC(=O)[C@@H](N)CC(C)C)C(C)C)C(C)C)C(=O)N1CCC[C@H]1C(=O)N[C@@H](CO)C(=O)N[C@H](C(=O)N[C@@H](CCCCN)C(=O)O)C(C)C [LFKVASKVLPSVK] | –
5 | – | – | – | – | – | – | – | – | – | – | CC(C)C[C@H](NC(=O)[C@H](CC(C)C)NC(=O)[C@H](Cc1c[nH]c2ccccc12)NC(=O)[C@H](CCCCN)NC(=O)[C@H](CC(C)C)NC(=O)[C@@H](N)CC(C)C)C(=O)N[C@@H](CCCCN)C(N)=O [LLKWLLK] | MIC [11]: 110 µM (≈ 99.9 µg/mL); MIC [12]: 27.4 µM (≈ 25 µg/mL); MIC [13]: ≥ 110 µM; MIC [14]: 110 µM (≈ 99.9 µg/mL); MIC [15]: ≥ 219 µM; MIC [16]: 219 µM (≈ 200 µg/mL); MIC [17]: 27.4 µM (≈ 25 µg/mL); MIC [18]: 110 µM (≈ 99.9 µg/mL)
6 | – | ≥ 100 | – | – | – | – | – | – | – | – | CC[C@H](C)[C@@H]1NC(=O)[C@H](CO)NC(=O)[C@H](CCCCN)NC(=O)[C@@H]2CSSC[C@@H](C(=O)N[C@@H](CC(=O)O)C(=O)NCC(=O)N[C@@H](CCC(N)=O)C(=O)N[C@H](C(=O)N[C@H](C(=O)N[C@H](C(=O)N[C@@H](CC(N)=O)C(=O)N[C@@H](CO)C(=O)N[C@H]3CSSC[C@@H]4NC(=O)[C@H](CCCN=C(N)N)NC(=O)CNC(=O)[C@H](Cc5ccccc5)NC(=O)[C@H](CCCCN)NC(=O)[C@H](CCCN=C(N)N)NC(=O)[C@H](CCCCN)NC(=O)[C@H](CSSC[C@@H](C(=O)N[C@@H](Cc5ccccc5)C(=O)N[C@@H](Cc5ccccc5)C(=O)O)NC(=O)[C@H](CCC(=O)O)NC(=O)[C@H]([C@@H](C)O)NC(=O)[C@H]([C@@H](C)CC)NC(=O)[C@H](Cc5ccccc5)NC(=O)CNC(=O)[C@H](CC(=O)O)NC(=O)[C@H](CO)NC4=O)NC(=O)[C@H](CC(=O)O)NC(=O)[C@H](CCC(=O)O)NC3=O)[C@@H](C)CC)[C@@H](C)O)[C@@H](C)O)NC(=O)[C@H](CO)NC(=O)[C@H](C(C)C)NC(=O)CNC(=O)[C@H](CCCCN)NC(=O)[C@H](CCCN=C(N)N)NC(=O)[C@H](CC(N)=O)NC(=O)[C@H](CC(C)C)NC(=O)[C@H](Cc3ccc(O)cc3)NC(=O)CNC(=O)[C@H](Cc3ccc(O)cc3)NC(=O)CNC(=O)[C@H](CSSC[C@H](NC(=O)[C@@H](NC(=O)[C@@H]3CCCN3C(=O)[C@H](C)NC(=O)[C@H](Cc3ccc(O)cc3)NC(=O)[C@H](C)NC(=O)[C@H](Cc3ccccc3)NC(=O)[C@@H](NC(=O)[C@@H](N)CCSC)C(C)C)[C@@H](C)O)C(=O)N[C@@H](C)C(=O)N[C@@H](CCCN=C(N)N)C(=O)N2)NC(=O)[C@H](Cc2ccc(O)cc2)NC(=O)[C@H](CCCN=C(N)N)NC(=O)[C@H](C)NC(=O)CNC1=O [MVFAYAPTCARCKSIGARYCGYGYLNRKGVSCDGQTTINSCEDCKRKFGRCSDGFITECFF] | MIC [19]: ≥ 35.4 µM
7 | – | – | – | – | – | – | – | – | – | – | CC[C@H](C)[C@H](NC(=O)[C@H](C)NC(=O)[C@H](CCC(N)=O)NC(=O)[C@H](Cc1cnc[nH]1)NC(=O)CNC(=O)[C@H](CCSC)NC(=O)[C@@H]1CCCN1C(=O)[C@H](CCCN=C(N)N)NC(=O)CNC(=O)[C@@H]1CSSC[C@@H]2NC(=O)[C@H](CC(N)=O)NC(=O)[C@H](Cc3cnc[nH]3)NC(=O)[C@H](CCCCN)NC(=O)[C@H](CC(=O)O)NC(=O)[C@H](CC(N)=O)NC(=O)[C@H]([C@@H](C)O)NC(=O)[C@@H]3CSSC[C@H](NC(=O)[C@H](CCCCN)NC(=O)[C@H](CC(C)C)NC(=O)[C@H](CCCCN)NC(=O)[C@H](Cc4ccccc4)NC(=O)[C@H](CC(C)C)NC(=O)CNC(=O)[C@H](CCCCN)NC(=O)[C@H](CCCN=C(N)N)NC(=O)[C@H](CSSC[C@H](NC(=O)[C@@H](N)CO)C(=O)N[C@@H]([C@@H](C)CC)C(=O)N4CCC[C@H]4C(=O)N[C@@H](CCCCN)C(=O)N[C@@H](Cc4cnc[nH]4)C(=O)N[C@@H](CCC(=O)O)C(=O)N[C@@H](CCC(=O)O)C(=O)N3)NC2=O)C(=O)N[C@@H](CCC(N)=O)C(=O)N[C@H]2CSSC[C@H](NC(=O)[C@H](CCCN=C(N)N)NC(=O)[C@H](CCC(=O)O)NC(=O)[C@H]([C@@H](C)O)NC(=O)[C@@H]3CCCN3C(=O)[C@H](CCC(N)=O)NC(=O)CNC(=O)[C@H](CO)NC(=O)[C@H](CCC(=O)O)NC(=O)[C@H](CC(=O)O)NC(=O)[C@H](CC(=O)O)NC(=O)[C@H](Cc3ccccc3)NC(=O)[C@H]([C@@H](C)O)NC(=O)[C@H](CO)NC2=O)C(=O)N[C@@H](C)C(=O)N1)C(=O)N[C@@H](CCC(=O)O)C(=O)N[C@H](C(=O)NCC(=O)N[C@@H](CC(C)C)C(=O)N[C@@H](CC(N)=O)C(=O)N[C@H](C(=O)N[C@@H](Cc1ccccc1)C(=O)N[C@@H](CCCN=C(N)N)C(=O)NCC(=O)N[C@@H](CC(C)C)C(=O)N[C@@H](Cc1ccccc1)C(=O)N[C@@H](CCCCN)C(=O)NCC(=O)N[C@@H](CCCCN)C(=O)N[C@@H](CCCCN)C(=O)N[C@@H](CCCCN)C(=O)N[C@@H](CC(N)=O)C(=O)N[C@@H](CCCCN)C(=O)N[C@@H](CCCCN)C(=O)N[C@H](C(=O)N[C@@H](CCCCN)C(N)=O)[C@@H](C)O)[C@@H](C)CC)[C@@H](C)O [SCIPKHEECTNDKHNCCRKGLFKLKCQCSTFDDESGQPTERCACGRPMGHQAIETGLNIFRGLFKGKKKNKKTK] | MIC [20]: > 250 µM; MIC [19]: 22.1 µM (≈ 185 µg/mL)
8 | – | – | – | – | – | – | – | – | – | – | CC[C@H](C)[C@H](NC(=O)[C@H](CCCN=C(N)N)NC(=O)[C@H](CCCN=C(N)N)NC(=O)[C@@H]1CCCN1C(=O)[C@@H]1CCCN1C(=O)[C@H](CCCN=C(N)N)NC(=O)[C@@H]1CCCN1C(=O)[C@@H](NC(=O)[C@@H]1CCCN1C(=O)[C@H](CC(C)C)NC(=O)[C@H](Cc1ccc(O)cc1)NC(=O)[C@@H]1CCCN1C(=O)[C@@H]1CCCN1C(=O)[C@H](CCCCN)NC(=O)[C@H](CC(=O)O)NC(=O)[C@@H](N)C(C)C)[C@@H](C)O)C(=O)N[C@@H](Cc1ccc(O)cc1)C(=O)N[C@@H](CC(N)=O)C(=O)N[C@@H](CCCN=C(N)N)C(N)=O [VDKPPYLPTPRPPRRIYNR] | MIC [21]: 2.06 µM (≈ 4.8 µg/mL)
9 | – | – | – | – | – | – | – | – | – | – | CC[C@H](C)[C@H](NC(=O)[C@H](CCCN=C(N)N)NC(=O)[C@H](CCCN=C(N)N)NC(=O)[C@@H]1CCCN1C(=O)[C@@H]1CCCN1C(=O)[C@H](CCCN=C(N)N)NC(=O)[C@H](CCCN=C(N)N)NC(=O)[C@H](CCCN=C(N)N)NC(=O)[C@@H]1CCCN1C(=O)[C@H](CCCN=C(N)N)NC(=O)[C@H](Cc1ccc(O)cc1)NC(=O)[C@@H]1CCCN1C(=O)[C@H](CCCN=C(N)N)NC(=O)[C@H](CCCCN)NC(=O)[C@H](CC(=O)O)NC(=O)[C@@H](N)C(C)C)C(=O)N[C@@H](Cc1ccc(O)cc1)C(=O)N[C@@H](CC(N)=O)C(=O)N[C@@H](CCCN=C(N)N)C(N)=O [VDKRPYRPRRRPPRRIYNR] | MIC [21]: 0.941 µM (≈ 2.4 µg/mL)
